# Measurements published in US20240150368A1, “ULK INHIBITORS AND METHODS OF USE THEREOF” (Deciphera Pharmaceuticals, LLC, priority 2022, published 2024).
# System: ULK kinase substrate ATG13 (pS318-ATG13) in T24 cells
# Experiment: pATG13 levels of mutant HRas T24 cells after treatment with ULK inhibitors in combination with trametinib (ELISA)
# Type: cell-based, human
# Details: in combination with trametinib 250 nM
# Method: pATG13 Levels of Mutant HRas T24 Cells after Treatment with ULK Inhibitors in Combination with Trametinib
# T24 human urinary bladder cancer cells (25000 cells/well) were added to a 96-well tissue-culture treated plate in 100 μL of pre-warmed DMEM medium supplemented with 10% characterized fetal bovine serum (Invitrogen, Carlsbad, CA), 100 units/mL penicillin G, and 100 μg/mL streptomycin and allowed to grow overnight at 37° C., 5% CO2, and 95% humidity. The following day, 100 μL of media containing trametinib or DMSO as a control was added to wells. The final concentration of trametinib in wells was 250 nM. A dose response of a test compound (0.5 μL per well) was added. DMSO (0.5 μL) was added to control wells. The plate was briefly shaken to mix wells and then incubated at 37° C. overnight. The next day, the media was aspirated and cells were washed with Dulbecco's Phosphate Buffered Saline (Gibco). Cells were lysed using MPER lysis buffer (Pierce, Rockford, IL) containing Halt Phosphatase and Protease Inhibitors (Pierce, Rockford, IL) and Phosphatase inhibitor cocktail 2 (Sigma, St. Louis, MO) at 4° C. for 10 min with shaking.
# Cellular levels of phospho-Serine 318 ATG13 (pATG13) were measured via an ELISA method. Total ATG13 Antibody (Cell Signaling Cat #13273) was used to coat the wells. The plate was incubated at 4° C. overnight and washed with ELISA wash buffer (Biolegend Cat #421601). The wells were then blocked with assay diluent (Biolegend Cat #421203) for 1 h at rt. Plate wells were washed with ELISA wash buffer. Cell lysate was added to wells and incubated at rt for 2 h. Plate wells were washed with ELISA wash buffer. Biotinylated pS318-ATG13 antibody (Rockland Immunochemicals Cat #600-401-C49) was diluted in assay diluent and added to each well and incubated at rt for 1 h. Plate wells were washed with ELISA wash buffer. Streptavidin linked to horseradish peroxidase (Thermo Fisher Cat #21140) was diluted in assay diluent and added to each well and incubated at rt for 1 h. Plate wells were washed with ELISA wash buffer. High sensitivity TMB substrate (Biolegend Cat #421101) was added to each well and incubated at rt for 20 min. The reaction was stopped with 2.0N sulfuric acid. The plate was analyzed at on a plate reader measuring absorbance at 450 nm and 540 nm (background). Signal was calculated by first subtracting the background absorbance at 540 nm from the absorbance at 450 nm for each well. Next, the background corrected absorbance at 450 nm from blank wells was subtracted from test wells. Data was compared to control wells to determine % ATG13 phosphorylation. GraphPad Prism was used to calculate IC50 values.
row,IC50,Compound
1,≤ 0.1 µM,CC/C(Nc1cnn(C2CCN(C(C)C)CC2)c1)=C1/C(=O)Nc2ccc(C(=O)N(C)CC(F)(F)F)cc21 [Example 7]
2,≤ 0.1 µM,CC/C(Nc1cnn(C2CCN(C(C)C)CC2)c1)=C1/C(=O)Nc2ccc(C(=O)NCC(F)(F)F)cc21 [Example 8]
3,0.1 to 0.3 µM,CC/C(Nc1cnn(C2CCN(C(C)C)CC2)c1)=C1/C(=O)Nc2ccc(C(=O)N(C)CCOC)cc21 [Example 9]
4,≤ 0.1 µM,CC/C(Nc1cnn(C2CCN(C(C)C)CC2)c1)=C1/C(=O)Nc2ccc(C(=O)NCC(C)C)cc21 [Example 16]
5,≤ 0.1 µM,CC/C(Nc1cnn(C2CCN(C(C)C)CC2)c1)=C1/C(=O)Nc2ccc(C(=O)NCCOC)cc21 [Example 98]

# Target: T1, LRRK2 kinase (Homo sapiens, UniProt Q5S007)
# T1 construct: (residues 970-2528; ID NO; 3); purchased Thermo Fisher
# Experiment: Biochemical assay for LRRK2 (coupled pyruvate kinase/lactate dehydrogenase assay)
# Details: 26.4 nM LRRK2, 1 mM ATP; read-out: LRRK2 (inhibition of LRRK2 kinase activity, IC50)
# Method: Biochemical Assay for LRRK2 (SEQ. ID NO. 3)
# Activity of LRRK2 kinase was determined spectroscopically using a coupled pyruvate kinase/lactate dehydrogenase assay that continuously monitors the ATP hydrolysis-dependent oxidation of NADH (e.g., Schindler et al. Science (2000) 289: 1938-1942). Assays were conducted in 384-well plates (100 μL final volume) using 26.4 nM LRRK2 (Thermo Fisher), 0.1 mM peptide substrate (RLGRDKYKTLRQIRQ), 1.5 units pyruvate kinase, 2.1 units lactate dehydrogenase, 1 mM phosphoenol pyruvate, 0.28 mM NADH and 1 mM ATP in assay buffer (100 mM Tris, pH 7.5, 15 mM MgCl2, 0.5 mM DTT, 0.004% (w/v) BSA, and 0.004% Triton X-100). Inhibition of LRRK2 was measured by adding serial diluted test compound (final assay concentration of 1% DMSO). A decrease in absorption at 340 nm was monitored continuously for 6 h at 30° C. on a multi-mode microplate reader (BioTek). The reaction rate was calculated using the 2-3 h time frame. The reaction rate at each concentration of compound was converted to percent inhibition using controls (i.e., reaction with no test compound and reaction with a known inhibitor) and IC50 values were calculated using software routines in Prism (GraphPad software).
# T1 sequence (Q5S007 with tags, fused parts or gaps): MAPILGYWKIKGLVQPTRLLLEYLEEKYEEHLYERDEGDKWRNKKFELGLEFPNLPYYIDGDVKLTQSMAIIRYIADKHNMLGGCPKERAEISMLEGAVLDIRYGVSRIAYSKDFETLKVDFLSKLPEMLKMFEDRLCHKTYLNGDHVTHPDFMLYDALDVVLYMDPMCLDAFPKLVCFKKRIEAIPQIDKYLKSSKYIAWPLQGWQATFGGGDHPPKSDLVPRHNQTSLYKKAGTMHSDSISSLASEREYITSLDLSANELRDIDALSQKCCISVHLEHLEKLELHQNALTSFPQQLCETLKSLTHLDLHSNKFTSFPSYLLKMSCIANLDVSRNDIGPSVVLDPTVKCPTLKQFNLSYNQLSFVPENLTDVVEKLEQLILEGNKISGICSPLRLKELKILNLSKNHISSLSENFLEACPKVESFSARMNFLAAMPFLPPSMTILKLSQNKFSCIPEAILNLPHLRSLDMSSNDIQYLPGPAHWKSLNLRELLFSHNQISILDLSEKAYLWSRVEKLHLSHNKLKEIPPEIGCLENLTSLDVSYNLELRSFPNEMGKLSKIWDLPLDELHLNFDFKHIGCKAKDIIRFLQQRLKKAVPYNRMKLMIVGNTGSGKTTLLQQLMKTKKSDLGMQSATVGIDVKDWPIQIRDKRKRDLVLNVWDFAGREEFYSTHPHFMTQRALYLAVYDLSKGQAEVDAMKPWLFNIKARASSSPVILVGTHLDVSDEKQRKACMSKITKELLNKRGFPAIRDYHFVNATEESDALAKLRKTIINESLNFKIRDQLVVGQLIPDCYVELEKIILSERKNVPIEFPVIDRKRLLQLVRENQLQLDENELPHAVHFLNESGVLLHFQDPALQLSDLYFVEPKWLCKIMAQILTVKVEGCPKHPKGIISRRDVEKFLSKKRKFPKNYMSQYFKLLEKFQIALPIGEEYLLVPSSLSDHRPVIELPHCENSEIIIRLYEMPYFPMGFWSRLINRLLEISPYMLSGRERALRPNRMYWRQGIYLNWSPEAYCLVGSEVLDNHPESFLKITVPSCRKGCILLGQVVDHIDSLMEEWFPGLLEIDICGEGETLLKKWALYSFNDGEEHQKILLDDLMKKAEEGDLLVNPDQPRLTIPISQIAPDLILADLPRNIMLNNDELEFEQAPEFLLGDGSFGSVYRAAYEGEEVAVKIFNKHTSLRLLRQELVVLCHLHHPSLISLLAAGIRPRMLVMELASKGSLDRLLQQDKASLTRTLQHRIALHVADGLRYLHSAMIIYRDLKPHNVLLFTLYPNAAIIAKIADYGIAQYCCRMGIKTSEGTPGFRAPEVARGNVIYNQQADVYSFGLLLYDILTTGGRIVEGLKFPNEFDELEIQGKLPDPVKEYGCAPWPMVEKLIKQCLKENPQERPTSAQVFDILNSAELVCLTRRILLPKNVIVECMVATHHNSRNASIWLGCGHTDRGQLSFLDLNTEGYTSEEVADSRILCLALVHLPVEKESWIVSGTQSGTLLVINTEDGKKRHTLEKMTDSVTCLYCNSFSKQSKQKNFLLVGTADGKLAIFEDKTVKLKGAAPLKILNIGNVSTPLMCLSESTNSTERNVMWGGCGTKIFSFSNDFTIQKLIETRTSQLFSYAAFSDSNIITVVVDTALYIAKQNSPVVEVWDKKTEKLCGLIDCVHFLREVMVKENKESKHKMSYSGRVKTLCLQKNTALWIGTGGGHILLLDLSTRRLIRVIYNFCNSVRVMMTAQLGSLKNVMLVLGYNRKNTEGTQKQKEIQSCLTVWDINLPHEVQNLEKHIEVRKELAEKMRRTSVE
row,IC50,Compound
1,≤ 0.1 µM,"CC/C(Nc1cnn(C(C)C)c1)=C1/C(=O)Nc2ccc(C(=O)NCC(F)(F)F)cc21 [Example 4, (Z)-3-(1-((1-isopropyl-1H-pyrazol-4-yl)amino)propylidene)-2-oxo-N-(2,2,2-trifluoroethyl)indoline-5-carboxamide]"
2,0.1 to 0.3 µM,CC/C(Nc1cnn(C2CCN(C(C)C)CC2)c1)=C1/C(=O)Nc2ccc(C(=O)NCC(F)(F)F)cc21 [Example 8]
3,0.1 to 0.3 µM,CC/C(Nc1cnn(C2CCN(C(C)C)CC2)c1)=C1/C(=O)Nc2ccc(C(=O)NCCC#N)cc21 [Example 26]
4,≤ 0.1 µM,CC/C(Nc1cnn(C2CCN(C(C)C)CC2)c1)=C1/C(=O)Nc2ccc(C(=O)NCCC(F)(F)F)cc21 [Example 31]
5,0.1 to 0.3 µM,CC/C(Nc1cnn(C2CCN(C3CCOCC3)CC2)c1)=C1/C(=O)Nc2ccc(C(=O)NCC(C)C)cc21 [Example 37]
6,0.1 to 0.3 µM,CC/C(Nc1ccc(N2CCN(C(C)C)CC2)cc1)=C1/C(=O)Nc2ccc(C(=O)NC[C@H]3CCCO3)cc21 [Example 47]
7,0.1 to 0.3 µM,CC/C(Nc1cnn(C2CCNCC2)c1)=C1/C(=O)Nc2ccc(C(=O)NC[C@H]3CCCO3)cc21 [Example 52]
8,0.3 to 0.6 µM,CC/C(Nc1cnn(C2CN(C)C2)c1)=C1/C(=O)Nc2ccc(C(=O)NC[C@H]3CCCO3)cc21 [Example 54]
9,0.1 to 0.3 µM,CC/C(Nc1cnn(C)c1)=C1/C(=O)Nc2ccc(C(=O)NC[C@H]3CCCO3)cc21 [Example 55]
10,0.3 to 0.6 µM,CC/C(Nc1cnn(C2CCN(C(C)C)CC2)c1)=C1/C(=O)Nc2ccc(C(=O)NC[C@@H](C)OC)cc21 [Example 58]
11,≤ 0.1 µM,CC/C(Nc1ccc(N2CC3(CN(C)C3)C2)cc1)=C1/C(=O)Nc2ccc(C(=O)NCC(F)(F)F)cc21 [Example 62]
12,≤ 0.1 µM,CC/C(Nc1ccc(N2CCN(C(C)C)CC2)cn1)=C1/C(=O)Nc2ccc(C(=O)NC[C@H]3CCCO3)cc21 [Example 93]
13,0.1 to 0.3 µM,CC/C(Nc1cnc(N2CCN(C(C)C)CC2)cn1)=C1/C(=O)Nc2ccc(C(=O)NCC(F)(F)F)cc21 [Example 94]
14,≤ 0.1 µM,CC/C(Nc1cnn(C(C)C)c1)=C1/C(=O)Nc2ccc(C(=O)NC[C@H]3CCCO3)cc21 [Example 95]
15,0.1 to 0.3 µM,CC/C(Nc1cnn(C2CCN(C(C)C)CC2)c1)=C1/C(=O)Nc2ccc(C(=O)NCCOC)cc21 [Example 98]
16,≤ 0.1 µM,CC/C(Nc1cnn([C@H]2CCOC2)c1)=C1/C(=O)Nc2ccc(C(=O)NCC(F)(F)F)cc21 [Example 104]
17,≤ 0.1 µM,CC/C(Nc1cnn(CC)c1)=C1/C(=O)Nc2ccc(C(=O)NCC(F)(F)F)cc21 [Example 107]
18,0.1 to 0.3 µM,CC/C(Nc1cn[nH]c1)=C1/C(=O)Nc2ccc(C(=O)NCC(F)(F)F)cc21 [Example 108]
19,≤ 0.1 µM,CC/C(Nc1cnn(C(C)C)c1)=C1/C(=O)Nc2ccc(C(=O)NCC(F)F)cc21 [Example 112]

row,IC50,Compound
1,0.1 to 0.3 µM,CC/C(Nc1cnn(C(F)(F)F)c1)=C1/C(=O)Nc2ccc(C(=O)NCC(F)(F)F)cc21 [Example 113]
2,≤ 0.1 µM,CC/C(Nc1cnn(C(F)F)c1)=C1/C(=O)Nc2ccc(C(=O)NCC(F)(F)F)cc21 [Example 114]
3,≤ 0.1 µM,CC/C(Nc1cnn(C2CC2)c1)=C1/C(=O)Nc2ccc(C(=O)NCC(F)(F)F)cc21 [Example 116]
4,≤ 0.1 µM,CC/C(Nc1cnn(C2CCC2)c1)=C1/C(=O)Nc2ccc(C(=O)NCC(F)(F)F)cc21 [Example 117]
5,≤ 0.1 µM,CC/C(Nc1cnn(C2COC2)c1)=C1/C(=O)Nc2ccc(C(=O)NCC(F)(F)F)cc21 [Example 118]
6,≤ 0.1 µM,CC/C(Nc1cnn(C(C)C)c1)=C1/C(=O)Nc2ccc(C(=O)N[C@H](C)C(F)(F)F)cc21 [Example 119]
7,0.1 to 0.3 µM,CC/C(Nc1cnn(C2CCN(C(C)C)CC2)c1)=C1/C(=O)Nc2ccc(C(C)=O)cc21 [Example 123]
8,≤ 0.1 µM,CC/C(Nc1cnn(C(C)C)c1)=C1/C(=O)Nc2ccc(C(=O)N(C)CC(F)(F)F)cc21 [Example 125]
9,≤ 0.1 µM,CC/C(Nc1cnn(C(C)C)c1)=C1/C(=O)Nc2ccc(C(=O)NCC(C)C)cc21 [Example 130]
10,0.1 to 0.3 µM,CC/C(Nc1cnn(C(C)C)c1)=C1/C(=O)Nc2ccc(C(=O)NCC(C)(C)F)cc21 [Example 135]
11,0.3 to 0.6 µM,CC/C(Nc1cnn(C(C)C)c1)=C1/C(=O)Nc2ccc(C(=O)NCCOC(F)(F)F)cc21 [Example 136]
12,0.1 to 0.3 µM,CC/C(Nc1cnn(C(C)C)c1)=C1/C(=O)Nc2ccc(C(=O)NCC3CCC(C)(C)O3)cc21 (stereo not drawn) [Example 137]
13,≤ 0.1 µM,CC/C(Nc1cnn(C(C)C)c1)=C1/C(=O)Nc2ccc(C(=O)NCC3(C(F)(F)F)CC3)cc21 [Example 140]
14,≤ 0.1 µM,CC/C(Nc1ccc2nn(C(C)C)cc2c1)=C1/C(=O)Nc2ccc(C(=O)NCC(F)(F)F)cc21 [Example 142]
15,≤ 0.1 µM,CC/C(Nc1cnn(C(C)C)c1)=C1/C(=O)Nc2ccc(C(=O)NCC3(F)CC3)cc21 [Example 152]
16,≤ 0.1 µM,CC/C(Nc1cnn(C)c1)=C1/C(=O)Nc2ccc(C(=O)NCC3(F)CC3)cc21 [Example 154]
17,0.1 to 0.3 µM,CC/C(Nc1cnn(CC(F)F)c1)=C1/C(=O)Nc2ccc(C(=O)NCC(C)(C)F)cc21 [Example 161]
18,≤ 0.1 µM,CC/C(Nc1cnn(C2CCOCC2)c1)=C1/C(=O)Nc2ccc(C(=O)NCC(C)(C)F)cc21 [Example 173]
